The results in this text go back to patent US20250034216A1, “STEREOSELECTIVE COVALENT LIGANDS FOR ONCOGENIC AND IMMUNOLOGICAL PROTEINS” (The Scripps Research Institute, priority 2021, published 2025).

The subject of one assay is 22Rv1 cells. The experiment in a line: Proliferation assay (CellTiter Glo). It counts as cell-based, human. To be noted: 72 h. On the procedure: Cells were seeded at 5000 cells per well (50 μL medium) in 96-well flat bottom white wall plates. After 24 h, 50 μL of medium containing DMSO or compound dilutions (2× final concentration from 1000× stocks) were added to the wells. At the time of compound addition, a reference plate to determine the cell population density at time 0 (TO) was assayed using CellTiter Glo reagent (50 μL added to each well). After 72 h in culture, the remaining plates were assayed using CellTiter Glo. After 30 min of shaking at room temperature, luminescence was analyzed using a CLARIOstar (BMG Labtech) plate reader. Raw values were normalized using GraphPad PRISM software version 9.0.0. Lines of best fit were generated using a four-parameter variable slope least squares regression.

Assay [1] has as its system mRNA splicing in 22Rv1 cells. The experiment in a line: RNA sequencing, alternative splicing (rMATS). Type of assay: cell-based, human. The settings on record: 8 hr, RNA-seq. As for the experimental part: RNA sequencing libraries were prepared using the NEBNext Ultra II RNA Library Prep Kit for Illumina following manufacturer's instructions (NEB, Ipswich, MA, USA). mRNAs were first enriched with Oligo(dT) beads. Enriched mRNAs were fragmented for 15 minutes at 94° C. First strand and second strand cDNAs were subsequently synthesized. cDNA fragments were end repaired and adenylated at 3′ends, and universal adapters were ligated to cDNA fragments, followed by index addition and library enrichment by limited-cycle PCR. The sequencing libraries were validated on the Agilent TapeStation (Agilent Technologies, Palo Alto, CA, USA), and quantified by using Qubit 2.0 Fluorometer (Invitrogen, Carlsbad, CA) as well as by quantitative PCR (KAPA Biosystems, Wilmington, MA, USA). FASTQ files were first trimmed using Trim_galore (v0.6.4) to remove sequencing adapters and low quality (Q<15) reads. Trimmed sequencing reads were aligned to the human Hg19 reference genome (GENCODE, GRCh37.p13) using STAR (v2.7.5). SAM files were subsequently converted to BAM files, sorted, and indexed using samtools (v1.9). […] Read counting across genomic features was performed using featureCounts (part of the subread package; v1.5.0) using the following parameters: -p -T 20 -O -F GTF -t exon. […]
For quantification of alternative RNA splicing, BAM files generated by STAR/Samtools were analyzed using rMATS (v4.1.1) using the GENCODE (v19) GTF annotation for Hg19 (GRCh37.p13) and the following parameters: -t paired --libType fr-unstranded—readLength 150—novelSS. To utilize reads shorted than 150b.p. resulting from adapter and/or QC trimming by trim_galore, rMATS was programmed to accept soft-clipped reads of variable length. Enumeration of isoform counts was performed using only reads that span the splice junction directly. To identify high confidence AS events, events were considered significant if (i) the inclusion level difference was greater than 20% compared to DMSO, (ii) the False Discovery Rate (FDR) was smaller than 0.05, and (iii) there were a minimum of 20 reads mapping to the splice junction. […]

With `C=CC(=O)N1[C@H](c2ccc3c(c2)OCO3)c2[nH]c3ccccc3c2C[C@H]1C(=O)N1CCOCC1` [WX-02-23, 1-((1R,3S)-1-(benzo[d][1,3]dioxol-S-yl)-3-(morpholine-4-carbonyl)-1,3,4,9-tetrahydro-2H-pyrido [3,4-b]indol-2-yl)prop-2-en-1-one], the “fold greater antiproliferative activity than MY-7A” value in the assay on 22Rv1 cells is about 4 fold. For the same molecule, in the assay with 22Rv1 cells (read-out: antiproliferative activity IC50), the IC50 (as a rule, the concentration at which inhibition is half-maximal) amounted to 170 nM. Also, the mRNA splicing changes result in assay [1] is “induction of both intron retention and exon skipping events”.

`C=CC(=O)N1[C@@H](c2ccc3c(c2)OCO3)c2[nH]c3ccccc3c2C[C@@H]1C(=O)N1CCOCC1` [WX-02-43, 1-((1S,3R)-1-(benzo[d][1,3]dioxol-5-yl)-3-(morpholine-4-carbonyl)-1,3,4,9-tetrahydro-2H-pyrido [3,4-b]indol-2-yl)prop-2-en-1-one]: the “anti-proliferative effect” value in the assay on 22Rv1 cells is “inactive enantiomer”. Also, the mRNA splicing changes result in assay [1] is “No such splicing effects were observed”.
